≈ marks a conversion by molar mass, not a printed value.
What was measured:
[1] = tested on: Pseudomonas aeruginosa TI-13; test: MIC, serial dilution on nutrient agar; type: cell-based; conditions: TI13, nutrient agar, 37° C., 18 hours, read-out: MIC
Escherichia coli K-12 R5 = test: microbe, parasite or virus in culture; type: cell-based; conditions: K12R5, 18 h
[2] = tested on: Staphylococcus aureus APO1; test: MIC, serial dilution on nutrient agar; type: cell-based; conditions: APO1, 18 h
intravenous LD50 in mice = conditions: mouse, in vivo, estimated
[3] = tested on: Pseudomonas aeruginosa ROS134/PU21; test: microbe, parasite or virus in culture; type: cell-based; conditions: ROS134/PU21, 18 h
[4] = tested on: Escherichia coli K-12 LA 290 R55; test: microbe, parasite or virus in culture; type: cell-based; conditions: K12LA290R55, 18 h
Escherichia coli NIHJ = test: MIC, serial dilution on nutrient agar; type: cell-based; conditions: 18 h
[5] = tested on: Staphylococcus epidermidis 109; test: MIC, serial dilution on nutrient agar; type: cell-based; conditions: Staphylococcus epidermidis, 109, 18 h
[6] = tested on: Pseudomonas aeruginosa 99; test: MIC, serial dilution on nutrient agar; type: cell-based; conditions: Pseudomonas aeruginosa, 99; nutrient agar, 37° C., 18 hours; read-out: MIC
Proteus rettgeri GN311 = test: MIC, serial dilution on nutrient agar; type: cell-based; conditions: Providencia rettgeri, GN311; nutrient agar, 37° C., 18 hours; read-out: MIC
[7] = tested on: Pseudomonas aeruginosa K-Ps102; test: MIC, serial dilution on nutrient agar; type: cell-based; conditions: KPS102, nutrient agar, 37° C., 18 hours, read-out: MIC
[8] = tested on: Pseudomonas aeruginosa H9; test: MIC, serial dilution on nutrient agar; type: cell-based; conditions: H9, nutrient agar, 37° C., 18 hours, read-out: MIC
[9] = tested on: Escherichia coli JR66/W677; test: MIC, serial dilution on nutrient agar; type: cell-based; conditions: JR66/W677, 18 h
Escherichia coli K-12 = test: MIC, serial dilution on nutrient agar; type: cell-based; conditions: K12, 18 h
[10] = tested on: Escherichia coli K-12 ML 1410; test: MIC, serial dilution on nutrient agar; type: cell-based; conditions: K12ML1410, 18 h
[11] = tested on: Escherichia coli K-12 LA 290 R56; test: microbe, parasite or virus in culture; type: cell-based; conditions: K12LA290R56, 18 h
Escherichia coli W677 = test: MIC, serial dilution on nutrient agar; type: cell-based; conditions: W677, 18 h
[12] = tested on: Pseudomonas aeruginosa No. 12; test: MIC, serial dilution on nutrient agar; type: cell-based; conditions: NO.12, nutrient agar, 37° C., 18 hours, read-out: MIC
Providencia Pv 16 = test: MIC, serial dilution on nutrient agar; type: cell-based; conditions: PV16, 18 h
[13] = tested on: Escherichia coli K-12 C 600R/35; test: MIC, serial dilution on nutrient agar; type: cell-based; conditions: K12C600R/35, 37° C., 18 hours
Description: (§1) The minimum inhibitory concentrations (mcg/ml) of 6"-deoxydibekacin (abbreviated as 6"-DDKB), 4",6"-dideoxydibekacin (abbreviated as 4",6"-DDKB), 1-N-(L-4-amino-2-hydroxybutyryl)-6"-deoxydibekacin (abbreviated as AHB-6"-DDKB) and 1-N-(L-4-amino-2-hydroxybutyryl)-4",6"-dideoxydibekacin (abbreviated as AHB-4",6"-DDKB) of this invention against various microorganisms were determined according to serial dilution method on a nutrient agar medium at 37° C., the estimation being made after 18 hours incubation. For comparison purpose, the minimum inhibitory concentrations of dibekacin (abbreviated as DKB) were also determined in the same manner as stated above.

Providencia 2991 = test: MIC, serial dilution on nutrient agar; type: cell-based; conditions: 37° C., 18 hours
Description: as §1

[14] = tested on: Klebsiella pneumoniae PCI 602; test: MIC, serial dilution on nutrient agar; type: cell-based; conditions: PCI602, 37° C., 18 hours
Description: as §1

Serratia SOU = test: MIC, serial dilution on nutrient agar; type: cell-based; conditions: 37° C., 18 hours
Description: as §1

Proteus vulgaris OX19 = test: MIC, serial dilution on nutrient agar; type: cell-based; conditions: 37° C., 18 hours
Description: as §1

[15] = tested on: Pseudomonas aeruginosa GN315; test: MIC, serial dilution on nutrient agar; type: cell-based; conditions: 37° C., 18 hours
Description: as §1

[16] = tested on: Escherichia coli K-12 ML 1630; test: MIC, serial dilution on nutrient agar; type: cell-based; conditions: K12ML1630, 37° C., 18 hours
Description: as §1

[17] = tested on: Pseudomonas maltophilia GN907; test: MIC, serial dilution on nutrient agar; type: cell-based; conditions: Stenotrophomonas maltophilia, 37° C., 18 hours
Description: as §1

[18] = tested on: Staphylococcus aureus 209P; test: MIC, serial dilution on nutrient agar; type: cell-based; conditions: 37° C., 18 hours
Description: as §1

[19] = tested on: Escherichia coli K-12 ML 1629; test: MIC, serial dilution on nutrient agar; type: cell-based; conditions: K12ML1629, 37° C., 18 hours
Description: as §1

Shigella sonnei JS11746 = test: MIC, serial dilution on nutrient agar; type: cell-based; conditions: 37° C., 18 hours
Description: as §1

[20] = tested on: Shigella flexneri 4b JS11811; test: MIC, serial dilution on nutrient agar; type: cell-based; conditions: 4BJS11811, 37° C., 18 hours
Description: as §1

Serratia marcescens = test: MIC, serial dilution on nutrient agar; type: cell-based; conditions: 37° C., 18 hours
Description: as §1

[21] = tested on: Escherichia coli K-12 J5B 11-2; test: MIC, serial dilution on nutrient agar; type: cell-based; conditions: K12J5B112, 37° C., 18 hours
Description: as §1

[22] = tested on: Pseudomonas aeruginosa 21-75; test: MIC, serial dilution on nutrient agar; type: cell-based; conditions: 2175, 37° C., 18 hours
Description: as §1

Serratia 4 = test: MIC, serial dilution on nutrient agar; type: cell-based; conditions: 37° C., 18 hours
Description: as §1

Salmonella typhi F63 = test: MIC, serial dilution on nutrient agar; type: cell-based; conditions: Salmonella enterica, 18 h
[23] = tested on: Mycrococcus flavus FDA 16; test: MIC, serial dilution on nutrient agar; type: cell-based; conditions: nutrient agar, 37° C., 18 hours; read-out: MIC
[24] = tested on: Escherichia coli K-12 R 388; test: MIC, serial dilution on nutrient agar; type: cell-based; conditions: K12R388, 18 h
Bacillus anthracis = test: microbe, parasite or virus in culture; type: cell-based; conditions: 18 h

C[C@H]1O[C@H](O[C@@H]2[C@@H](O)[C@H](O[C@H]3O[C@H](CN)CC[C@H]3N)[C@@H](N)C[C@H]2N)[C@H](O)[C@@H](N)[C@@H]1O [6"-DDKB, 6"-deoxydibekacin]
MIC [1]: 12.5 µg/mL (≈ 28.7 µM) | MIC (Escherichia coli K-12 R5): 100 µg/mL (≈ 230 µM) | MIC [2]: 3.13 µg/mL (≈ 7.19 µM) | LD50 (intravenous LD50 in mice): > 60 mg/kg | MIC [3]: > 100 µg/mL | MIC [4]: > 100 µg/mL | MIC (Escherichia coli NIHJ): 1.56 µg/mL (≈ 3.58 µM) | MIC [5]: 1.56 µg/mL (≈ 3.58 µM) | MIC [6]: 12.5 µg/mL (≈ 28.7 µM) | MIC (Proteus rettgeri GN311): 6.25 µg/mL (≈ 14.4 µM) | MIC [7]: 6.25 µg/mL (≈ 14.4 µM) | MIC [8]: 12.5 µg/mL (≈ 28.7 µM) | MIC [9]: 100 µg/mL (≈ 230 µM) | MIC (Escherichia coli K-12): 1.56 µg/mL (≈ 3.58 µM) | MIC [10]: 3.13 µg/mL (≈ 7.19 µM) | MIC [11]: 25 µg/mL (≈ 57.4 µM) | MIC (Escherichia coli W677): 1.56 µg/mL (≈ 3.58 µM) | MIC [12]: 6.25 µg/mL (≈ 14.4 µM) | MIC (Providencia Pv 16): > 100 µg/mL | MIC [13]: 3.13 µg/mL (≈ 7.19 µM) | MIC (Providencia 2991): > 100 µg/mL | MIC [14]: 1.56 µg/mL (≈ 3.58 µM) | MIC (Serratia SOU): > 100 µg/mL | MIC (Proteus vulgaris OX19): 0.39 µg/mL (≈ 0.895 µM) | MIC [15]: 100 µg/mL (≈ 230 µM) | MIC [16]: 3.13 µg/mL (≈ 7.19 µM) | MIC [17]: > 100 µg/mL | MIC [18]: 0.78 µg/mL (≈ 1.79 µM) | MIC [19]: 1.56 µg/mL (≈ 3.58 µM) | MIC (Shigella sonnei JS11746): 3.13 µg/mL (≈ 7.19 µM) | MIC [20]: 3.13 µg/mL (≈ 7.19 µM) | MIC (Serratia marcescens): 100 µg/mL (≈ 230 µM) | MIC [21]: 1.56 µg/mL (≈ 3.58 µM) | MIC [22]: > 100 µg/mL | MIC (Serratia 4): 100 µg/mL (≈ 230 µM) | MIC (Salmonella typhi F63): 0.39 µg/mL (≈ 0.895 µM) | MIC [23]: 25 µg/mL (≈ 57.4 µM) | MIC [24]: 1.56 µg/mL (≈ 3.58 µM) | MIC (Bacillus anthracis): 0.39 µg/mL (≈ 0.895 µM)

Source: patent publication US4332794A, “6"-Deoxydibekacin, 4",6"-dideoxydibekacin and 1-N-aminoacyl derivatives thereof, and the production of these new compounds” (Zaidan Hojin Biseibutsu Kagaku Kenkyu Kai, priority 1979, dated 1982)
